Measurements reported in US10428083B2, “Heterocyclylmethyl-thienouracile as antagonists of the adenosine-A2B-receptor” (BAYER PHARMA AKTIENGESELLSCHAFT, priority 2015, dated 2019).

The molecules below were run against human adenosine A2b receptor (Homo sapiens (Human), UniProt P29275) (assay: Cellular in vitro reporter gene test for A2b receptor activity (CHO-K1, CRE-luciferase, NECA stimulation)). Conditions: recombinant CHO-K1 cell line, CRE-luciferase reporter, antagonism of EC50 concentration of NECA; in some cases means of several determinations, rounded to two significant figures; read-out: A2b receptor IC50.
Sequence of human adenosine A2b receptor (P29275 whole entry): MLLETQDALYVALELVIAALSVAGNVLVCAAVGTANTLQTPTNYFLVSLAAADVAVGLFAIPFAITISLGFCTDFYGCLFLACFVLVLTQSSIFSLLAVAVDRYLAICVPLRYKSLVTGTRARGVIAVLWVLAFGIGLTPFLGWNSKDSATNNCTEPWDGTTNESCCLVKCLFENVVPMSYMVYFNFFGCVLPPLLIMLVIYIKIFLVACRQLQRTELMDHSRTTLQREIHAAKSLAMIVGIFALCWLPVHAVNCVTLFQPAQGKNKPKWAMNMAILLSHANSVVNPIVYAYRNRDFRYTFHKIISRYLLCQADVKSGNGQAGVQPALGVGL
Type: cell-based
Outline: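 CHO-K1 cells with CRE-driven luciferase; antagonists co-incubated with NECA at its EC50, determined in a pre-experiment on each test day. Luciferase read by luminescence 3 h after NECA addition.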
Work on `Cc1c(CN2CCNC2=O)sc2c1c(=O)n(C(C)C)c(=O)n2CF` [Example 313, 1-(Fluoromethyl)-3-isopropyl-5-methyl-6-[(2-oxoimidazolidin-1-yl)methyl]thieno[2,3-d]pyrimidine-2,4(1H,3H)-dione] yielded an IC50 of 41 nM. In the case of `Cc1c(CN2CCNC2=O)sc2c1c(=O)n(C(C)C)c(=O)n2CCCF` [Example 314, 1-(3-Fluoropropyl)-3-isopropyl-5-methyl-6-[(2-oxoimidazolidin-1-yl)methyl]thieno[2,3-d]pyrimidine-2,4(1H,3H)-dione], the IC50 is reported as 4.7 nM. `C#CCn1c(=O)c2c(C)c(CN3CCNC3=O)sc2n(CCOC)c1=O` [Example 315, 1-(2-Methoxyethyl)-5-methyl-6-[(2-oxoimidazolidin-1-yl)methyl]-3-(prop-2-yn-1-yl)thieno[2,3-d]pyrimidine-2,4(1H,3H)-dione] gave an IC50 of 4.3 nM. `C=CCCn1c(=O)c2c(C)c(CN3CCNC3=O)sc2n(CCOC)c1=O` [Example 316, 3-(But-3-en-1-yl)-1-(2-methoxyethyl)-5-methyl-6-[(2-oxoimidazolidin-1-yl)methyl]thieno[2,3-d]pyrimidine-2,4(1H,3H)-dione] gave an IC50 of 1.3 nM. In the case of `CC#CCn1c(=O)c2c(C)c(CN3CCNC3=O)sc2n(CCOC)c1=O` [Example 317, 3-(But-2-yn-1-yl)-1-(2-methoxyethyl)-5-methyl-6-[(2-oxoimidazolidin-1-yl)methyl]thieno[2,3-d]pyrimidine-2,4(1H,3H)-dione], the IC50 is reported as 25 nM. `C#CCCn1c(=O)c2c(C)c(CN3CCNC3=O)sc2n(CCOC)c1=O` [Example 318, 3-(But-3-yn-1-yl)-1-(2-methoxyethyl)-5-methyl-6-[(2-oxoimidazolidin-1-yl)methyl]thieno[2,3-d]pyrimidine-2,4(1H,3H)-dione] was tested, and the IC50 was 1.4 nM. `C=C(C)CCn1c(=O)c2c(C)c(CN3CCNC3=O)sc2n(CCOC)c1=O` [Example 319, 1-(2-Methoxyethyl)-5-methyl-3-(3-methylbut-3-en-1-yl)-6-[(2-oxoimidazolidin-1-yl)methyl]thieno[2,3-d]pyrimidine-2,4(1H,3H)-dione] gave an IC50 of 2.4 nM. In the case of `COCCn1c(=O)n(CCC=C(C)C)c(=O)c2c(C)c(CN3CCNC3=O)sc21` [Example 320, 1-(2-Methoxyethyl)-5-methyl-3-(4-methylpent-3-en-1-yl)-6-[(2-oxoimidazolidin-1-yl)methyl]thieno[2,3-d]pyrimidine-2,4(1H,3H)-dione], the IC50 is reported as 0.44 nM. `COCCn1c(=O)n(CCC(F)=C(F)F)c(=O)c2c(C)c(CN3CCNC3=O)sc21` [Example 321, 1-(2-Methoxyethyl)-5-methyl-6-[(2-oxoimidazolidin-1-yl)methyl]-3-(3,4,4-trifluorobut-3-en-1-yl)thieno[2,3-d]pyrimidine-2,4(1H,3H)-dione] was tested, and the IC50 was 1.6 nM. Molecule `COCCn1c(=O)n(CCC=C(F)F)c(=O)c2c(C)c(CN3CCNC3=O)sc21` [Example 322, 3-(4,4-Difluorobut-3-en-1-yl)-1-(2-methoxyethyl)-5-methyl-6-[(2-oxoimidazolidin-1-yl)methyl]thieno[2,3-d]pyrimidine-2,4(1H,3H)-dione] has an IC50 of 1.3 nM. `CCOCCn1c(=O)c2c(C)c(CN3CCNC3=O)sc2n(CCC(F)(F)F)c1=O` [Example 326, 3-(2-Ethoxyethyl)-5-methyl-6-[(2-oxoimidazolidin-1-yl)methyl]-1-(3,3,3-trifluoropropyl)thieno[2,3-d]pyrimidine-2,4(1H,3H)-dione] gave an IC50 of 10 nM. `CCOCCn1c(=O)c2c(C)c(CN3CCNC3=O)sc2n(CCOC)c1=O` [Example 327, 3-(2-Ethoxyethyl)-1-(2-methoxyethyl)-5-methyl-6-[(2-oxoimidazolidin-1-yl)methyl]thieno[2,3-d]pyrimidine-2,4(1H,3H)-dione] was tested, and the IC50 was 40 nM. In the case of `COCCCn1c(=O)c2c(C)c(CN3CCNC3=O)sc2n(CCOC)c1=O` [Example 328, 1-(2-Methoxyethyl)-3-(3-methoxypropyl)-5-methyl-6-[(2-oxoimidazolidin-1-yl)methyl]thieno[2,3-d]pyrimidine-2,4(1H,3H)-dione], the IC50 is reported as 19 nM. Work on `COCCn1c(=O)n(CC2COC2)c(=O)c2c(C)c(CN3CCNC3=O)sc21` [Example 335, 1-(2-Methoxyethyl)-5-methyl-3-(oxetan-3-ylmethyl)-6-[(2-oxoimidazolidin-1-yl)methyl]thieno[2,3-d]pyrimidine-2,4(1H,3H)-dione] yielded an IC50 of 270 nM. Molecule `Cc1c(CN2CCN(C)C2=O)sc2c1c(=O)n(CC(F)(F)F)c(=O)n2CCC(F)(F)F` [Example 336, 5-Methyl-6-[(3-methyl-2-oxoimidazolidin-1-yl)methyl]-3-(2,2,2-trifluoroethyl)-1-(3,3,3-trifluoropropyl)thieno[2,3-d]pyrimidine-2,4(1H,3H)-dione] has an IC50 of 8.7 nM. `COCCn1c(=O)n(CCC(F)(F)F)c(=O)c2c(C)c(CN3CCN(C)C3=O)sc21` [Example 337, 1-(2-Methoxyethyl)-5-methyl-6-[(3-methyl-2-oxoimidazolidin-1-yl)methyl]-3-(3,3,3-trifluoropropyl)thieno[2,3-d]pyrimidine-2,4(1H,3H)-dione] was tested, and the IC50 was 280 nM. With `COC(C)(C)Cn1c(=O)c2c(C)c(CN3CCN(C)C3=O)sc2n(CCC(F)(F)F)c1=O` [Example 338, 3-(2-Methoxy-2-methylpropyl)-5-methyl-6-[(3-methyl-2-oxoimidazolidin-1-yl)methyl]-1-(3,3,3-trifluoropropyl)thieno[2,3-d]pyrimidine-2,4(1H,3H)-dione] the IC50 was 120 nM. `Cc1c(Cn2cc[nH]c2=O)sc2c1c(=O)n(CC(F)(F)F)c(=O)n2CCC(F)(F)F` [Example 339, 5-Methyl-6-[(2-oxo-2,3-dihydro-1H-imidazol-1-yl)methyl]-3-(2,2,2-trifluoroethyl)-1-(3,3,3-trifluoropropyl)thieno[2,3-d]pyrimidine-2,4(1H,3H)-dione] gave an IC50 of 5.6 nM. For `COCCn1c(=O)n(CC(F)(F)F)c(=O)c2c(C)c(Cn3cc[nH]c3=O)sc21` [Example 340, 1-(2-Methoxyethyl)-5-methyl-6-[(2-oxo-2,3-dihydro-1H-imidazol-1-yl)methyl]-3-(2,2,2-trifluoroethyl)thieno[2,3-d]pyrimidine-2,4(1H,3H)-dione], the IC50 was 18 nM. Work on `COCCn1c(=O)c2c(C)c(Cn3cc[nH]c3=O)sc2n(CCC(F)(F)F)c1=O` [Example 344, 3-(2-Methoxyethyl)-5-methyl-6-[(2-oxo-2,3-dihydro-1H-imidazol-1-yl)methyl]-1-(3,3,3-trifluoropropyl)thieno[2,3-d]pyrimidine-2,4(1H,3H)-dione] yielded an IC50 of 8.5 nM. With `COCCn1c(=O)c2c(C)c(Cn3cc[nH]c3=O)sc2n(CCOC)c1=O` [Example 345, 1,3-Bis(2-methoxyethyl)-5-methyl-6-[(2-oxo-2,3-dihydro-1H-imidazol-1-yl)methyl]thieno[2,3-d]pyrimidine-2,4(1H,3H)-dione] the IC50 was 17 nM. Molecule `C=CCn1cnn(Cc2sc3c(c2C)c(=O)n(CC)c(=O)n3CF)c1=O` [Example 349, 6-[(4-Allyl-5-oxo-4,5-dihydro-1H-1,2,4-triazol-1-yl)methyl]-3-ethyl-1-(fluoromethyl)-5-methylthieno[2,3-d]pyrimidine-2,4(1H,3H)-dione] has an IC50 of 630 nM. With `C=CCn1cnn(Cc2sc3c(c2C)c(=O)n(CC)c(=O)n3CCCF)c1=O` [Example 350, 6-[(4-Allyl-5-oxo-4,5-dihydro-1H-1,2,4-triazol-1-yl)methyl]-3-ethyl-1-(3-fluoropropyl)-5-methylthieno[2,3-d]pyrimidine-2,4(1H,3H)-dione] the IC50 was 210 nM. `CCn1c(=O)c2c(C)c(Cn3nc[nH]c3=O)sc2n(CF)c1=O` [Example 352, 3-Ethyl-1-(fluoromethyl)-5-methyl-6-[(5-oxo-4,5-dihydro-1H-1,2,4-triazol-1-yl)methyl]thieno[2,3-d]pyrimidine-2,4(1H,3H)-dione] showed an IC50 of 48 nM. Molecule `CCn1c(=O)c2c(C)c(Cn3nc[nH]c3=O)sc2n(CCCF)c1=O` [Example 353, 3-Ethyl-1-(3-fluoropropyl)-5-methyl-6-[(5-oxo-4,5-dihydro-1H-1,2,4-triazol-1-yl)methyl]thieno[2,3-d]pyrimidine-2,4(1H,3H)-dione] has an IC50 of 31 nM. With `CCn1c(=O)c2c(C)c(Cn3nc[nH]c3=O)sc2n(CCCOC)c1=O` [Example 354, 3-Ethyl-1-(3-methoxypropyl)-5-methyl-6-[(5-oxo-4,5-dihydro-1H-1,2,4-triazol-1-yl)methyl]thieno[2,3-d]pyrimidine-2,4(1H,3H)-dione] the IC50 was 120 nM. With `CCCn1cnn(Cc2sc3c(c2C)c(=O)n(CC)c(=O)n3CCC(F)(F)F)c1=O` [Example 355, 3-Ethyl-5-methyl-6-[(5-oxo-4-propyl-4,5-dihydro-1H-H-1,2,4-triazol-1-yl)methyl]-1-(3,3,3-trifluoropropyl)thieno[2,3-d]pyrimidine-2,4(1H,3H)-dione] the IC50 was 99 nM. `Cc1c(CN2CCNC2=NC#N)sc2c1c(=O)n(CC(F)(F)F)c(=O)n2CCC(F)(F)F` [Example 358, [1-{[5-Methyl-2,4-dioxo-3-(2,2,2-trifluoroethyl)-1-(3,3,3-trifluoropropyl)-1,2,3,4-tetrahydrothieno[2,3-d]pyrimidin-6-yl]methyl}imidazolidin-2-ylidene]cyanamide] gave an IC50 of 12 nM. `Cc1c(CN2CCNC2=NC#N)sc2c1c(=O)n(CC(F)(F)F)c(=O)n2CC1CCO1` (stereo not shown) [Example 359, [1-{[5-Methyl-1-(oxetan-2-ylmethyl)-2,4-dioxo-3-(2,2,2-trifluoroethyl)-1,2,3,4-tetrahydrothieno[2,3-d]pyrimidin-6-yl]methyl}imidazolidin-2-ylidene]cyanamide] was tested, and the IC50 was 37 nM. `COCCn1c(=O)c2c(C)c(CN3CCNC3=NC#N)sc2n(CCC(F)(F)F)c1=O` [Example 362, [1-{[3-(2-Methoxyethyl)-5-methyl-2,4-dioxo-1-(3,3,3-trifluoropropyl)-1,2,3,4-tetrahydrothieno[2,3-d]pyrimidin-6-yl]methyl}imidazolidin-2-ylidene]cyanamide] gave an IC50 of 9.4 nM. With `COCCn1c(=O)c2c(C)c(CN3CCNC3=NC#N)sc2n(CCOC)c1=O` [Example 363, [1-{[1,3-Bis(2-methoxyethyl)-5-methyl-2,4-dioxo-1,2,3,4-tetrahydrothieno[2,3-d]pyrimidin-6-yl]methyl}imidazolidin-2-ylidene]cyanamide] the IC50 was 19 nM.
